Measurements as given in US20110065669A1, “OXAZOLOBENZIMIDAZOLE DERIVATIVES” (Merck Sharp & Dohme Corp., priority 2008, published 2011).

target: T1, recombinant human mGluR2 (Homo sapiens, UniProt Q14416); experiment: FLIPR assay (Ca2+ mobilization), potentiation of the mGluR2 receptor; format: cell-based; conditions: CHO dhfr- cells expressing human mGluR2 and Gα16; potentiation after EC20 glutamate (900 nM)
T1 construct: expressed in transfected cells
Description: Inhibition constants are determined as follows. The compounds of the present invention may be tested in a […] (FLIPR) based assay. This assay is a common functional assay to monitor Ca^2+ mobilization in whole cells expressing recombinant receptor coupled with a promiscuous G-protein. CHO dhfr-cells stably expressing recombinant human mGluR2 and Gα16 loaded with Fluo-4 AM (Invitrogen, Carlsbad Calif.) are treated with dose responses of compounds and the Ca^2+ response is monitored on a FLIPR384 (Molecular Devices, Sunnydale Calif.) for agonist activity. The potentiation response is monitored after a subsequent addition of an EC20 concentration of glutamate (900 nM). The maximum calcium response at each concentration of compound for agonist or potentiation are plotted as dose responses and the curves are fitted with a four parameters logistic equation giving EC50 and Hill coefficient using the iterative non linear curve fitting software program.

T1 sequence (Q14416 19-872): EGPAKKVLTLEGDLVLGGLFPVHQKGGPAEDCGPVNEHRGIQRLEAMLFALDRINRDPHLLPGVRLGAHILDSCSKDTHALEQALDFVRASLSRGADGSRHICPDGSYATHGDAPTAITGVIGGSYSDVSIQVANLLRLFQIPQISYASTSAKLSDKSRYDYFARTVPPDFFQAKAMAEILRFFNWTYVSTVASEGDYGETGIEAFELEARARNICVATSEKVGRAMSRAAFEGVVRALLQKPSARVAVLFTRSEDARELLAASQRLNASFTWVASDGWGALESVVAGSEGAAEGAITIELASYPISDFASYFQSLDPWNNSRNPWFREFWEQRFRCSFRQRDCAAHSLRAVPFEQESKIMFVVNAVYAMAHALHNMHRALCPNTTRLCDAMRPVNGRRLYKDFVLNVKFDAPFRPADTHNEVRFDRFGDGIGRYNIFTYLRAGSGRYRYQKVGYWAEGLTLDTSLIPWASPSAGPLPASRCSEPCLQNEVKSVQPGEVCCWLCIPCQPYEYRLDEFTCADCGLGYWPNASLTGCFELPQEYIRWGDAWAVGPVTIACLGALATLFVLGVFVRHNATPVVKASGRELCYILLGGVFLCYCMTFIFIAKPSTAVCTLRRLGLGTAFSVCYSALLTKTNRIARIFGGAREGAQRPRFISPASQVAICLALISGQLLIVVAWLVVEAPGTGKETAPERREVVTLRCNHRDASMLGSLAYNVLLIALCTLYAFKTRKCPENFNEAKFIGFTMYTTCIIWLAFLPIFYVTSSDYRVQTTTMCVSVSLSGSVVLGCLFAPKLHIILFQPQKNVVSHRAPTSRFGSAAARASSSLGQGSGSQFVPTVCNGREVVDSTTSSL

Structure (SMILES)	EC50 [nM]
CC(C)(C)c1ccc(OC[C@@H]2Cn3c(nc4ccccc43)O2)cc1 [Example 1-4, (2S)-2-[(4-tert-butylphenoxy)methyl]-2,3-dihydro[1,3]oxazolo[3,2-a]benzimidazole]	11
CC(=O)c1cccc(OC[C@@H]2Cn3c(nc4ccccc43)O2)c1 [Example 1-5, 1-{3-[(2S)-2,3-dihydro[1,3]oxazolo[3,2-a]benzimidazol-2-ylmethoxy]phenyl}ethanone]	522
Cn1nccc1-c1ccc(OC[C@@H]2Cn3c(nc4ccccc43)O2)cc1 [Example 2-1, (2S)-2-{[4-(1-methyl-1H-pyrazol-5-yl)phenoxy]methyl}-2,3-dihydro[1,3]oxazolo[3,2-a]benzimidazole]	137
C[Si](C)(C)c1ccc(OC[C@@H]2Cn3c(nc4ccccc43)O2)cc1 [Example 4-1, (2S)-2-{[4-(trimethylsilyl)phenoxy]methyl}-2,3-dihydro[1,3]oxazolo[3,2-a]benzimidazole]	27

Further lines, results first:

EC50 [nM]	Structure (SMILES)
12	CC(C)(c1ccc(OC[C@@H]2Cn3c(nc4ccccc43)O2)cc1)C(F)(F)F [Example 3-5, (2S)-2-{[4-(2,2,2-trifluoro-1,1-dimethylethyl)phenoxy]methyl}-2,3-dihydro[1,3]oxazolo[3,2-a]benzimidazole]
37	Clc1cccc(OC[C@@H]2Cn3c(nc4ccccc43)O2)c1 [Example 3-9, (2S)-2-[(3-chlorophenoxy)methyl]-2,3-dihydro[1,3]oxazolo[3,2-a]benzimidazole]
235	c1ccc(OC[C@@H]2Cn3c(nc4ccccc43)O2)cc1 [Example 3-20, (2S)-2-(phenoxymethyl)-2,3-dihydro[1,3]oxazolo[3,2-a]benzimidazole, reference compound]
